Measurements from patent US20020150990A1, “Hepatitis C virus peptides” (priority 1992, published 2002).
Ends that are not written are not given here.

System: antibodies against HCV
Assay: PEPSCAN analysis of overlapping octameric peptides of the HCV core protein N-terminal region with HCV-seropositive sera
Assay type: binding, human
Settings: read at 405 nm
Text: The N-terminal 97 amino acid residues of HCV Core protein SEQ ID NO: 8 was mapped with PEPSCAN analysis. This process involved the serological analysis of sequentially overlapping peptides which spanned the region of interest, to identify epitopic domains. Ninety overlapping octameric peptides were synthesized on polypropylene pin supports according to the manufacturer's instructions (Cambridge Research Biochemicals), such that each peptide overlapped with the preceding sequence by the seven N-terminal residues, and with the subsequent peptide by the seven C-terminal residues. Serum or IgG purified from the serum of individuals confirmed to be seropositive for HCV were used to screen the peptides.
The assay procedure followed was performed basically as described in the manufacturers instruction manual. The time and temperature of the test antibody incubation differed from that prescribed, thereby decreasing the time taken for each assay.
Sera: A total of 16 sera were assayed by PEPSCAN. These consisted of 12 sera from paid U.S. Donors which were identified as being positive for antibodies against HCV in routine screening at the site of donation. The remaining four sera were from patients diagnosed as having non-A non-B hepatitis, and which were subsequently shown to contain antibodies to HCV. Sera were screened either as the crude serum fraction, or as a caprylic acid preparation. Caprylic acid purification of IgG from the sera was performed as described by Stienbuch and Audran (1969) Arch. Biochem. Biophys. 134, 279-284.
Assay: The assay format involves sequentially incubating the various pins in microwell plates containing blocking, test antibody, conjugate, and substrate solutions. The immune complex builds up on the pin with the enzyme labelled conjugate being immobilized on the bound anti-peptide antibody from the test serum. When the pin is then immersed in substrate, the enzyme brings about the colour change which is used to quantify the amount of anti-peptide antibody bound.
Blocking: Pins are immersed in 200 μl of Supercocktail (1% Ovalbumin, 1% bovine serum albumin in 0.15M phosphate buffered saline pH 7.2—0.1% Tween 20) and left to stand at room temperature for 1 hour.
Test antibody: The test antibody is diluted between 1/200 (IgG) and 1/1000 (serum) in supercocktail. The pins are then stood in this solution (175 μl/well) at 37° C. for 1 hour. After this incubation the pins are washed four times in 0.15M phosphate buffered saline pH 7.2—0.05% Tween 20, each at room temperature for 10 minutes.
Conjugate: Rabbit anti-human IgG coupled to horseradish peroxidase is diluted 1/1000 in supercocktail. The peptide bearing pins are then stood in this solution at room temperature for 1 hour. Once again the pins are then washed four times as above.
Substrate: The substrate solution is made up fresh for each assay. To 100 ml of 0.1M phosphate, 0.08M citrate buffer pH 4.0 is dissolved 50 mg of 2,2′-AZINO-bis (3-ethylbenzthiazo-linsulphonic acid (ABTS) and 0.3 μl/ml 30% hydrogen peroxide is added. The pins are immersed in the wells containing substrate solution (150 μl/well) and incubated at room temperature in the dark. Once sufficient colour has developed the reaction is stopped by removing the pins. The plates are then read immediately in a spectrophotometric plate reader at a wavelength of 405 nm. The absorbance values are then plotted against pin number. The epitopic domains are then defined as the continuous sequence of amino acids common to all positive pins in the domain i.e.

Row | Sequence | Absorbance Units for different sera (serum 65221) | Absorbance Units for different sera (serum 65234) | Absorbance Units for different sera (serum 65241) | Absorbance Units for different sera (serum 65276) | Absorbance Units for different sera (serum L)
1 | GGGQIVGG (pin support) [overlapping octameric peptide of HCV core protein on pin support] | 137 Absorbance Units | 134 Absorbance Units | 121 Absorbance Units | 127 Absorbance Units | 121 Absorbance Units
2 | GGQIVGGV (pin support) [overlapping octameric peptide of HCV core protein on pin support] | 323 Absorbance Units | 179 Absorbance Units | 122 Absorbance Units | 119 Absorbance Units | 119 Absorbance Units
3 | GGVYLLPR (pin support) [overlapping octameric peptide of HCV core protein on pin support] | 132 Absorbance Units | 344 Absorbance Units | 311 Absorbance Units | 246 Absorbance Units | 191 Absorbance Units
4 | GPRLGVRA (pin support) [overlapping octameric peptide of HCV core protein on pin support] | 111 Absorbance Units | 75 Absorbance Units | 60 Absorbance Units | 146 Absorbance Units | 101 Absorbance Units
5 | GQIVGGVY (pin support) [overlapping octameric peptide of HCV core protein on pin support] | 216 Absorbance Units | 165 Absorbance Units | 112 Absorbance Units | 128 Absorbance Units | 138 Absorbance Units
6 | GVYLLPRR (also: pin support) [Gly-Val-Tyr-Leu-Leu-Pro-Arg-Arg, overlapping octameric peptide of HCV core protein on pin support] | 613 Absorbance Units | 229 Absorbance Units | 511 Absorbance Units | 350 Absorbance Units | 378 Absorbance Units
7 | IVGGVYLL (pin support) [overlapping octameric peptide of HCV core protein on pin support] | 268 Absorbance Units | 186 Absorbance Units | 126 Absorbance Units | 183 Absorbance Units | 158 Absorbance Units
8 | LLPRRGPR (pin support) [overlapping octameric peptide of HCV core protein on pin support] | 142 Absorbance Units | 101 Absorbance Units | 129 Absorbance Units | 98 Absorbance Units | 133 Absorbance Units
9 | LPRRGPRL (pin support) [overlapping octameric peptide of HCV core protein on pin support] | 97 Absorbance Units | 145 Absorbance Units | 94 Absorbance Units | 139 Absorbance Units | 148 Absorbance Units
10 | PRLGVRAT (pin support) [overlapping octameric peptide of HCV core protein on pin support] | 166 Absorbance Units | 88 Absorbance Units | 79 Absorbance Units | 155 Absorbance Units | 115 Absorbance Units
11 | PRRGPPLG [overlapping octameric peptide of HCV core protein on pin support] | 85 Absorbance Units | 109 Absorbance Units | 73 Absorbance Units | 129 Absorbance Units | 110 Absorbance Units
12 | QIVGGVYL (pin support) [overlapping octameric peptide of HCV core protein on pin support] | 329 Absorbance Units | 152 Absorbance Units | 125 Absorbance Units | 165 Absorbance Units | 161 Absorbance Units
13 | RGPRLGVR (pin support) [overlapping octameric peptide of HCV core protein on pin support] | 168 Absorbance Units | 99 Absorbance Units | 94 Absorbance Units | 167 Absorbance Units | 132 Absorbance Units
14 | RLGVRATR (pin support) [overlapping octameric peptide of HCV core protein on pin support] | 81 Absorbance Units | 100 Absorbance Units | 180 Absorbance Units | 177 Absorbance Units | 124 Absorbance Units
15 | RRGPRLGV (pin support) [overlapping octameric peptide of HCV core protein on pin support] | 145 Absorbance Units | 146 Absorbance Units | 85 Absorbance Units | 150 Absorbance Units | 123 Absorbance Units
16 | VGGVYLLP (pin support) [overlapping octameric peptide of HCV core protein on pin support] | 83 Absorbance Units | 235 Absorbance Units | 144 Absorbance Units | 132 Absorbance Units | 169 Absorbance Units
17 | VYLLPRRG (pin support) [Val-Tyr-Leu-Leu-Pro-Arg-Arg-Gly, overlapping octameric peptide of HCV core protein on pin support] | 769 Absorbance Units | 280 Absorbance Units | 641 Absorbance Units | 440 Absorbance Units | 306 Absorbance Units
18 | YLLPRRGP (pin support) [Tyr-Leu-Leu-Pro-Arg-Arg-Gly-Pro, overlapping octameric peptide of HCV core protein on pin support] | 332 Absorbance Units | 177 Absorbance Units | 367 Absorbance Units | 248 Absorbance Units | 242 Absorbance Units
